# Patent US12121561B1, “Composition for treating or preventing insulin resistance” (KING FAISAL UNIVERSITY, priority 2024, dated 2024)
# Columns and labels:
# NO production = NO production with recombinant vWF protein
# glucose uptake = test: Glucose uptake with recombinant vWF protein
substance,measurement,setting,value
recombinant vWF protein: a recombinant vWF protein with a specific vWF sequence (SEQ ID NO: 1) (EPECNDITARLQYVKVGSCKSEVEVDIHYCQGKCASKAMYSIDINDVQDQCSC; listed as Homo sp.),NO production,NO production,significantly inhibit
same,glucose uptake,glucose uptake,significantly inhibit
